Consider four compounds from patent US20240082416A1, “AMATOXIN ANALOGS AND USES THEREOF” (THE UNIVERSITY OF BRITISH COLUMBIA, priority 2020, published 2024).

The nature of data set [1]: Viability assay against CHO cells (MTT colorimetric assay). Type of data set: cell-based, Chinese hamster. The following applies: Chinese hamster, CHO cells, 72 h, replicates n = 1, 2, 3, read-out: % viable cells; for viability at 72 h, 1e-05 M: 1e-005 M; for viability at 72 h, 1.25e-06 M: 1.25e-006 M; for viability at 72 h, 1.56e-07 M: 1.56e-007 M; for viability at 72 h, 2e-05 M: 2e-005 M; for viability at 72 h, 2.5e-06 M: 2.5e-006 M; for viability at 72 h, 3.125e-07 M: 3.125e-007 M; for viability at 72 h, 5e-06 M: 5e-006 M; for viability at 72 h, 6.25e-07 M: 6.25e-007 M; for viability at 72 h, 7.8e-08 M: 7.8e-008 M.

The nature of data set [2]: Cell viability assay (BrdU incorporation) on HEK293-OATP1B3 cells. Format: cell-based, human. The following applies: human, HEK293 cells overexpressing OATP1B3 (HEK293-OATP1B3); highest used concentration of 1 μM; HEK293-OATP1B3 cells. On the procedure:
. HEK293 and HEK-OATP1B3 cells were plated at 2.5×10^3 cells/well in a 1:1 mixture of Ham's F12 with DMEM containing 10% charcoal-stripped fetal calf serum (FCS) onto poly-D-lysine-coated 96-well plates and grown for 24 hours. Subsequently, cells were incubated with amanitin analogs at 8 different concentrations (1×10^−6 M to 1.28×10^−11 M, serial 1:5 dilutions). Following 96 h of drug exposure, cell viability was determined by a BrdU incorporation assay (Cell Proliferation ELISA, BrdU, Roche) and chemiluminescence was measured using a FLUOstar Optima plate reader (BMG LABtech). Data analysis was performed with GraphPad Prism 8 (GraphPad Software, Inc., La Jolla, CA) software to plot curve fits.
(In general: Incorporation of labelled thymidine or its analogues reports DNA synthesis.)

Data set [3] has as its target T1, Pol II (Homo sapiens, UniProt P24928).
T1 construct: HeLaScribe® nuclear extract containing Pol II and all other transcription factors; purchased Promega; host or cells: HeLa nuclear extract (endogenous protein)
In words: In vitro transcription runoff assay using HeLaScribe nuclear extract. Format: biochemical. The following applies: for Transcription activity E (%): mean ± standard deviation. The source says:
(h) In vitro transcription assay of synthetic amanitins containing analogs of Hyp: Primers were purchased from IDT via standard phosphoramidite chemistry. dNTP and rNTP were purchased from Thermofisher. GoTaq polymerase and HeLaScribe*Nuclear Extract in vitro Transcription System was purchased from Promega. Taq polymerase was purchased from NEB. [^32P] α-dGTP (3000 Ci/mmol 10 mCi/ml EasyTide) and [^32P] α-GTP (3000 Ci/mmol 10 mCi/ml EasyTide) were purchased from Perkin Elmer. QIAquick PCR purifcation kit was purchased from Qiagen. AcGFP1-N1 was a gift (Addgene plasmid #54705; http://n2t.net/addgene:54705; RRID:Addgene_54705). DNA Primer sequences were:
The DNA template for transcription runoff was synthesized by PCR with template pAcGFP-N1, and primers P1 and P2. To a final volume of 20 μL, 1 x GoTaq Buffer, 250 μM of each dNTP, 500 nM of each primers P1 and P2, […] pAcGFP-N1 and 0.05 U/μL GoTaq were employed to thermocycle for 30 cycles (30 s at 95° C., 30 s at 50° C. and 60 s at 72° C., Bio-Rad). A 1 μL aliquot of the amplified solution was resolved with 6×DNA loading dye in a 1% agarose gel containing […] and then visualized using GelDoc XR imager (Bio-Rad). Purification was completed via QIAquick PCR purification kit (Qiagen). The radioactive chromatographic standard was synthesized by PCR with template pAcGFP-N1, and primers P3 and P4. To a final volume of 50 μL, 1 x Thermopol Buffer, 200 μM of each dNTP, 500 nM of each primers P3 and P4, 10 pg/μL pAcGFP-N1 and 0.02 U/μL Vent polymerase, 1 μL [^32P] α-dGTP were employed to thermocycle for 30 cycles (30 s at 95° C., 30 s at 62° C. and 30 s at 72° C., Bio-Rad). A 1 μL aliquot of the amplified solution was resolved with 6×DNA loading dye in 8% denaturing PAGE and then visualized by autoradiography via the Typhoon 9200 imager (Molecular namics-Amersham-GE). Purification was completed via QIAquick PCR purification kit (Qiagen). The transcription runoff assay was modified from HeLaScribe® Nuclear Extract in vitro Transcription System (Promega). […]. The pellet was resolved by 8% denaturing PAGE and then visualized by autoradiography via the Typhoon 9200 imager (Molecular dynamics-Amersham-GE). Dosimetry was calculated by ImageJ, and the 3 parameter logistic fit was completed by Origin 2019 (OriginLab). […]
All data were presented in mean±standard deviation (n=3).

[4] abbreviates: IC50 (nM), Table 11, 3 parameter logistic fit.
[5] abbreviates: IC50 (nM), Table 12, n = 3, high values estimated from activity at [I]=1.0 μM.

Each structure is given as a SMILES string. Starred links: 1 amine or outer side, 2 acyl side, 3 side chain; linkers in the order of their positions; H or OH if unused. Positions of bridges follow the written chain, without caps; N, C: chain ends. Non-standard residues stand in square brackets, D forms with d. Residues, ends and D or L forms follow the SMILES beside them. Trp(2-yl) = O=C([C@H](Cc1c([*:3])[nH]c2ccccc12)N[*:1])[*:2]; Pro(trans-4-guanidino) = N=C(N)N[C@H]1CN[C@H](C(=O)O)C1; Pro(4R-SH) = O=C([C@@H]1C[C@@H](S[*:3])CN1[*:1])[*:2]; Ile(4R-OH,5-OH) = C[C@H]([C@H](N)C(=O)O)[C@@H](O)CO; X1 = N#C[C@@H]1C[C@@H](C(=O)[*:2])N([*:1])C1; Pro(4R-NH2) = N[C@H]1CN[C@H](C(=O)O)C1

A word on the IC50: it is the concentration at which inhibition is half-maximal.

As to `CC[C@H](C)[C@@H]1NC(=O)CNC(=O)[C@@H]2Cc3c([nH]c4ccccc34)SC[C@H](NC(=O)CNC1=O)C(=O)N[C@@H](CC(N)=O)C(=O)N1C[C@H](C#N)C[C@H]1C(=O)N[C@@H]([C@@H](C)[C@@H](O)CO)C(=O)N2` [Compound 4, CN-Pro-amanitin] (cyclo(CN[X1][Ile(4R-OH,5-OH)][Trp(2-yl)]GIG); thioether 1-5), in data set [1], the viability at 72 h, 1e-05 M came to 110%; the viability at 72 h, 1.25e-06 M was 102%; the viability at 72 h, 1.56e-07 M is 102%; the viability at 72 h, 2e-05 M was found to be 121%. In data set [1], the viability at 72 h, 2.5e-06 M turned out to be 101%; the viability at 72 h, 3.125e-07 M came out at 99%; the viability at 72 h, 5e-06 M worked out at 103%; the viability at 72 h, 6.25e-07 M was 102%. Besides, the viability at 96 h, 1 µM in data set [2] was determined as 43%. For the same compound, the “Transcription activity E (%)” value in data set [3] (10 nM) worked out at 80.7 ± 7.9%. The “Transcription activity E (%)” value in data set [3] (30 nM) was found to be 64.8 ± 7.4%. In addition, the “Transcription activity E (%)” value in data set [3] (100 nM) was determined as 74.0 ± 13.0%. For the same compound, the “Transcription activity E (%)” value in data set [3] (300 nM) stood at 72.4 ± 9.7%. In data set [3] (1000 nM), the “Transcription activity E (%)” value is reported as 52.3 ± 17.0%. Also, half-maximal inhibition in data set [3] (setting [4]) (IC50) required 480 ± 380 nM. The IC50 in data set [3] (setting [5]) was 480 ± 380 nM.

As for `CC[C@H](C)[C@@H]1NC(=O)CNC(=O)[C@@H]2Cc3c([nH]c4ccccc34)SC[C@H](NC(=O)CNC1=O)C(=O)N[C@@H](CC(N)=O)C(=O)N1C[C@H](S)C[C@H]1C(=O)N[C@@H]([C@@H](C)[C@@H](O)CO)C(=O)N2` [Compound 5, SH-Pro-amanitin] (cyclo(CN[Pro(4R-SH)][Ile(4R-OH,5-OH)][Trp(2-yl)]GIG); thioether 1-5), in data set [1], the viability at 72 h, 1e-05 M was found to be 94%; the viability at 72 h, 1.25e-06 M worked out at 93%; the viability at 72 h, 1.56e-07 M was 93%; the viability at 72 h, 2e-05 M was found to be 106%. Moreover, in data set [1], the viability at 72 h, 2.5e-06 M was found to be 91%; the viability at 72 h, 3.125e-07 M was 94%; the viability at 72 h, 5e-06 M is 100%; the viability at 72 h, 6.25e-07 M was 98%. Also, the viability at 72 h, 7.8e-08 M in data set [1] was found to be 94%. In addition, the viability at 96 h, 1 µM in data set [2] is 50%. The “Transcription activity E (%)” value in data set [3] (10 nM) stood at 78.5 ± 26.6%. Further, in data set [3] (30 nM), the “Transcription activity E (%)” value is reported as 99.6 ± 11.6%. In addition, the “Transcription activity E (%)” value in data set [3] (100 nM) is reported as 91.2 ± 18.5%. Moreover, the “Transcription activity E (%)” value in data set [3] (300 nM) is recorded as 71.2 ±19.0%. Further, the “Transcription activity E (%)” value in data set [3] (1000 nM) came to 50.3 ± 20.8%. For the same compound, it took 910 ± 230 nM to reach half-maximal inhibition in data set [3] (IC50) (IC50). This compound displayed a 50% inhibitory concentration (IC50) in data set [3] (setting [4]) of 910 ± 330 nM. Besides, the IC50 in data set [3] (setting [5]) is 910 ± 330 nM.

With `CC[C@H](C)[C@@H]1NC(=O)CNC(=O)[C@@H]2Cc3c([nH]c4ccccc34)SC[C@H](NC(=O)CNC1=O)C(=O)N[C@@H](CC(N)=O)C(=O)N1C[C@H](N)C[C@H]1C(=O)N[C@@H]([C@@H](C)[C@@H](O)CO)C(=O)N2` [Compound 6, NH2-Pro-amanitin] (cyclo(CN[Pro(4R-NH2)][Ile(4R-OH,5-OH)][Trp(2-yl)]GIG); thioether 1-5), in data set [1], the viability at 72 h, 1e-05 M amounted to 91%; the viability at 72 h, 1.25e-06 M came to 95%; the viability at 72 h, 1.56e-07 M amounted to 95%; the viability at 72 h, 2e-05 M was 92%. Further, in data set [1], the viability at 72 h, 2.5e-06 M is 86%; the viability at 72 h, 3.125e-07 M was 86%; the viability at 72 h, 5e-06 M was determined as 87%; the viability at 72 h, 6.25e-07 M was found to be 92%. Also, the viability at 72 h, 7.8e-08 M in data set [1] came out at 96%. The viability at 96 h, 1 µM in data set [2] was found to be 33%. In addition, in data set [3] (30 nM), the “Transcription activity E (%)” value amounted to 91.7 ± 9.3%. In addition, the “Transcription activity E (%)” value in data set [3] (100 nM) worked out at 82.3 ± 12.8%. Moreover, the “Transcription activity E (%)” value in data set [3] (300 nM) turned out to be 55.0 ± 23.6%. The “Transcription activity E (%)” value in data set [3] (1000 nM) is listed as 38.6 ± 18.3%. Moreover, the “Transcription activity E (%)” value in data set [3] (3000 nM) turned out to be 19.8 ± 9.9%. In data set [3] (IC50), this compound had an IC50 of 550 ± 90 nM. Further, in data set [3] (setting [4]), the IC50 turned out to be 550 ± 90 nM. In data set [3] (setting [5]), the IC50 is 550 ± 90 nM.

As for `CC[C@H](C)[C@@H]1NC(=O)CNC(=O)[C@@H]2Cc3c([nH]c4ccccc34)SC[C@H](NC(=O)CNC1=O)C(=O)N[C@@H](CC(N)=O)C(=O)N1C[C@H](NC(=N)N)C[C@H]1C(=O)N[C@@H]([C@@H](C)[C@@H](O)CO)C(=O)N2` [Compound 7, Gdn-Pro-amanitin] (cyclo(CN[Pro(trans-4-guanidino)][Ile(4R-OH,5-OH)][Trp(2-yl)]GIG); thioether 1-5), in data set [1], the viability at 72 h, 1e-05 M is 100%; the viability at 72 h, 1.25e-06 M was determined as 89%; the viability at 72 h, 1.56e-07 M stood at 88%; the viability at 72 h, 2e-05 M stood at 99%. Further, in data set [1], the viability at 72 h, 2.5e-06 M stood at 90%; the viability at 72 h, 3.125e-07 M was 85%; the viability at 72 h, 5e-06 M is 93%; the viability at 72 h, 6.25e-07 M is 88%. Moreover, the viability at 72 h, 7.8e-08 M in data set [1] amounted to 96%. Further, the viability at 96 h, 1 µM in data set [2] stood at 86%. Moreover, in data set [3] (30 nM), the “Transcription activity E (%)” value stood at 77.3 ± 9.0%. The “Transcription activity E (%)” value in data set [3] (100 nM) is 76.1 ± 13.2%. In data set [3] (300 nM), the “Transcription activity E (%)” value worked out at 56.6 ± 11.6%. Besides, the “Transcription activity E (%)” value in data set [3] (1000 nM) stood at 31.3 ± 5.8%. In data set [3] (3000 nM), the “Transcription activity E (%)” value stood at 14.1 ± 7.1%. In data set [3] (IC50), this compound showed an IC50 of roughly 400 nM. Further, the IC50 in data set [3] (setting [4]) was 410 ± 80 nM. Moreover, the IC50 in data set [3] (setting [5]) was 410 ± 80 nM. For the same compound, the “IC50 fold higher than that of the natural product” value in data set [3] (vs α-amanitin) is recorded as “approximately 50 fold”.
